Patent publication US20020019536A1, “NEW URETHANES, THIO AND DITHIO ANALOGUES AND THEIR USE AS INHIBITORS OF CHOLESTEROL BIOSYNTHESIS” (priority 1997, published 2002)

What was measured:
[1] = biological target: T1, 2,3-epoxysqualene-lanosterol-cyclase (Rattus norvegicus, UniProt P48450); test: In-vivo activity in the rat after oral administration: 2,3-epoxysqualene level in the liver
T1 construct: Measuring the in-vivo Activity in the Rat after Oral Administration; from tissue; host or cells: living rat; 2,3-epoxysqualene measured in the liver
T1 sequence (P48450 1-733): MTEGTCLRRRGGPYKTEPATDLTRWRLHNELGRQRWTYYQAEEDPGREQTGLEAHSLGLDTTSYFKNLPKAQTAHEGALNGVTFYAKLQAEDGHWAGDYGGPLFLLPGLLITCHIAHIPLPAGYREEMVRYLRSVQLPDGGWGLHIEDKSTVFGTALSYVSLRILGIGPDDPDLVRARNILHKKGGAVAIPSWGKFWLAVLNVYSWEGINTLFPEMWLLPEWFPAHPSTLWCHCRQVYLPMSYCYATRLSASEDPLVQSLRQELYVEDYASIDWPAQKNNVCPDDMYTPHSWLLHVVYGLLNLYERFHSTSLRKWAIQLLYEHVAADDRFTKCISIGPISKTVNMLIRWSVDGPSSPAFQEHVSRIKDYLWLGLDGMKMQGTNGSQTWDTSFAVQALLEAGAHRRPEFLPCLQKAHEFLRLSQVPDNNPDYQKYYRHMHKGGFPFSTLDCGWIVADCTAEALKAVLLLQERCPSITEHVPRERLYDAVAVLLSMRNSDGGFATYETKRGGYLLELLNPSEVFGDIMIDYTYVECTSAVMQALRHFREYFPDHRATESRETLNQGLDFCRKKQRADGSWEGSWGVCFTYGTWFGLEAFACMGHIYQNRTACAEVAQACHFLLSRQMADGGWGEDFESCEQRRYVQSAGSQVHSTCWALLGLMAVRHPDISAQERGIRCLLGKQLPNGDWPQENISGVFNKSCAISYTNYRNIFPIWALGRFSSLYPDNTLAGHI
Procedure: II. Measuring the in-vivo Activity in the Rat after Oral Administration
Inhibiting the enzyme 2,3-epoxysqualene-lanosterol-cyclase causes an increase in the 2,3-epoxisqualene levels in the liver and plasma. The quantity of 2,3-epoxysqualene formed therefore serves as a direct measurement of the potency on the animal as a whole. The amounts were determined using the method described in J. Lipid. Res. 38, 564-575, [1997] at t=3 or 8 hours after administration of the substance in concentrations of c=0.01, 0.03, 0.1, 0.3 and 1.0 mg/kg. Table 3 which follows gives the results obtained for the abovementioned substances A, B, C, E, G, H, O and R by way of example.
In the control animals there were no measurable 2,3-epoxisqualene levels under these conditions.

[2] = system: HaCat cells (human keratinocytes); test: Inhibition of cell proliferation (BrdU ELISA); type: cell-based; settings: 10^−6 mol/l, average of three measurements, given as a percentage of the control (control 100%)
Procedure: IV. Inhibition of Cell Proliferation
HaCat cells (human keratinocytes) are seeded at a density of 10,000 cells per well in a 96 well microtitre plate. The culture medium used is Dulbecco's modified eagle medium (DMEM) with the addition of 10% calf serum. The cells are incubated for two days in an incubator, then the test substance, dissolved in dimethyl sulphoxide and diluted with culture medium, is added. After another two days incubation, 5-bromo-2′-deoxyuridine is added and the test results are determined according to the instructions (Boehringer Mannheim, Cell proliferation ELISA, BrdU(colorimetric)). The BrdU measurement was carried out at 380-490 nm in the Plate Reader made by Bio Rad.
The proliferation-inhibiting activity of compounds E, G and H was investigated. The average of three measurements was calculated and the results are given as a percentage of the control (Table 5).

[3] = Lipid reduction in the normolipaemic golden hamster; type: in vivo; settings: compared with control group
Procedure: III. Lipid Reduction in the Normolipaemic Golden Hamster This was determined using the method described in J. Lipid. Res. 38, 564-575, (1997). At the end of the experiment the total cholesterol, β-lipoprotein-cholesterol and HDL-cholesterol were determined and compared with the values of a control group which were fed without any test substance. The lipid-lowering activity of the abovementioned compounds E, G and I was tested.

[4] = system: 14C-acetate incorporation into the steroids which can be precipitated with digitonin (cholesterol biosynthesis); test: Inhibition of 14C-acetate incorporation into the steroids which can be precipitated with digitonin; type: cell-based
Text: I. Measuring the Inhibition of ^14C-acetate incorporation into the steroids which can be precipitated with digitonin: The inhibitory effect was investigated using the method described in J. Lipid. Res. 37, 148-157 [1996] at test concentrations of 10^−8 and 10^−9 mol/l.

[5] = system: Trich. mentagrophytes ATCC 9129; test: Fungistatic activity, series dilution test; type: cell-based; settings: Sabouraud broth, 2 to 4 days at 26° C.
Procedure: (§1) V. Determining the Fungistatic Activity
(§2) The fungistatic activity was determined by the series dilution test (microtitre system). Sabouraud broth was used as the nutrient medium. The inoculum amounted to about 10^4 to 10^5 CFU/ml (CFU=colony-forming units); the incubation period was 2 to 4 days at 26° C.
(§3) The lowest concentration which allows no visible growth (minimum inhibitory concentration MIC) was determined.
(§4) The abovementioned compounds B, E, G, I, K, L, N, Q and R were tested. The MIC is given in μg/ml.

[6] = system: Sacch. carisbergensis ATCC 9080; test: Fungistatic activity, series dilution test; type: cell-based; settings: Sabouraud broth, 2 to 4 days at 26° C.
Procedure: as §1, §2, §3, §4

[7] = system: Cand. albicans ATCC 10231; test: Fungistatic activity, series dilution test; type: cell-based; settings: Sabouraud broth, 2 to 4 days at 26° C.
Procedure: as §1, §2, §3, §4

Asp. niger ATCC 16404 = test: Fungistatic activity, series dilution test; type: cell-based; settings: Sabouraud broth, 2 to 4 days at 26° C.
Procedure: as §1, §2, §3, §4

Rhod. rubra 49 = test: Fungistatic activity, series dilution test; type: cell-based; settings: Sabouraud broth, 2 to 4 days at 26° C.
Procedure: as §1, §2, §3, §4

Pen. notatum CBS 19746 = test: Fungistatic activity, series dilution test; type: cell-based; settings: Sabouraud broth, 2 to 4 days at 26° C.
Procedure: as §1, §2, §3, §4

## CN(C)Cc1ccc([C@H]2CC[C@H](N(C)C(=O)Oc3ccc(Cl)cc3)CC2)cc1.Cl [E, trans-O-(4-chlorophenyl)-N-4-[4-(dimethylaminomethyl)-phenyl]cyclohexyl-N-methylcarbamate-hydrochloride]
[1]; 0.01 mg/kg oral, 3 h after administration
  2,3-epoxysqualene concentration in the liver (rat): 20.3 µg/g
[1]; 0.01 mg/kg oral, 8 h after administration
  2,3-epoxysqualene concentration in the liver (rat): 32.7 µg/g
[1]; 0.03 mg/kg oral, 3 h after administration
  2,3-epoxysqualene concentration in the liver (rat): 39.0 µg/g
[1]; 0.03 mg/kg oral, 8 h after administration
  2,3-epoxysqualene concentration in the liver (rat): 44.6 µg/g
[1]; 0.1 mg/kg oral, 3 h after administration
  2,3-epoxysqualene concentration in the liver (rat): 92.5 µg/g
[1]; 0.1 mg/kg oral, 8 h after administration
  2,3-epoxysqualene concentration in the liver (rat): 191.5 µg/g
[1]; 0.3 mg/kg oral, 3 h after administration
  2,3-epoxysqualene concentration in the liver (rat): 63.4 µg/g
[1]; 0.3 mg/kg oral, 8 h after administration
  2,3-epoxysqualene concentration in the liver (rat): 180.0 µg/g
[2]
  Cell proliferation (% of control): 19.6%
[3]; dose 0.5 mg/kg/day
  HDL-cholesterol: −18.2%
  Total cholesterol: −22.5%
  β-Lipoprotein-cholesterol: −27.5%
[3]; dose 1.5 mg/kg/day
  HDL-cholesterol: −24.0%
  Total cholesterol: −34.1%
  β-Lipoprotein-cholesterol: −48.4%
[3]; dose 4.9 mg/kg/day
  HDL-cholesterol: −25.1%
  Total cholesterol: −34.3%
  β-Lipoprotein-cholesterol: −45.1%
[4]; 14C-acetate incorporation
  IC50: 0.3 nM
[4]; test concentration 10^−8 mol/l
  percentage inhibition of 14C-acetate incorporation: −85%
[4]; test concentration 10^−9 mol/l
  percentage inhibition of 14C-acetate incorporation: −57%
[5]
  MIC Trich.: 2 µg/mL
[6]
  MIC Sacc.: 128 µg/mL
[7]
  MIC Cand.: 16 µg/mL
Asp. niger ATCC 16404
  MIC Asp.: 4 µg/mL
Rhod. rubra 49
  MIC Rhod.: 16 µg/mL
Pen. notatum CBS 19746
  MIC Pen.: 2 µg/mL
